Measurements: US10752612B2, “PLK4 inhibitors” (LUDWIG INSTITUTE FOR CANCER RESEARCH LTD, priority 2015, dated 2020)

Target: T1, human Plk4 kinase domain (aa 2-275) (Homo sapiens, UniProt O00444)
T1 construct: purified 6×His-tagged human Plk4 kinase domain (aa 2-275); 6xHis; made in house; host or cells: E. coli
T1 sequence (O00444 2-275): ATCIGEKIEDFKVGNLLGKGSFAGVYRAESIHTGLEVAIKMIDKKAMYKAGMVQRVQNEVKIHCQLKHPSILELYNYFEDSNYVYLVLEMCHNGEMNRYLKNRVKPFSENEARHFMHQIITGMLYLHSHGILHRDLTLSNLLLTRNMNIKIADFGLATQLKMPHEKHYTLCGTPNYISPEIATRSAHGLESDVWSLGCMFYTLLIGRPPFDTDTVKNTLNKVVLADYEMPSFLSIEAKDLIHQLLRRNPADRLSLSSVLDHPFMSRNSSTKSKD
Test: Plk4 kinase assay (ADP-Glo)
Format: biochemical
Conditions: Table 1
Procedure, shortened: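 Enzyme at 2.5-10 nM final, pH 8.0, reacted 4-16 hours at 25° C; ADP generation read by ADP-Glo luminescence. Ki derived from IC50 by Cheng-Prusoff or, for tight binders, Copeland formalism.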

| Structure (SMILES) | IC50 [µM] |
| --- | --- |
| CCOc1c(Nc2cc(C)[nH]n2)nc(Sc2ccc(NC(C)=O)cc2)nc1N1CCN(C2CCN(C)CC2)CC1 | 0.1 to 1 |
| CCOc1c(Nc2cc(C)[nH]n2)nc(Sc2ccc(NC(=O)C3CCCC3)cc2)nc1N1CCN(C)CC1 | 0.1 to 1 |
| Cc1cc(Nc2nc(Sc3ccc(NC(=O)C4CC4)cc3)nc(N3CCN(C)CC3)c2Cl)n[nH]1 | 0.1 to 1 |
| CCOc1c(Nc2cc(C)[nH]n2)nc(SC)nc1N1CCN(CCN(C)C)CC1 | 0.1 to 1 |
| COc1c(Nc2cc(C)[nH]n2)nc(Sc2ccc(NC(=O)C3CC3)cc2)nc1N1CCN(C(C)(C)C)CC1 | > 1 |
| CC(=O)Nc1ccc(Sc2nc(Nc3cc(C)[nH]n3)c(C)c(N3CCCC3)n2)cc1 | < 1 |
| COC(=O)Nc1ccc(Sc2nc(Nc3cc(C)[nH]n3)c(C)c(N3CCCCC3)n2)cc1 | < 1 |
| COc1c(Nc2cc(C)[nH]n2)nc(Sc2ccc(S(=O)(=O)Cc3ccccc3F)cc2)nc1N1CCN(CCN(C)C)CC1 | < 1 |
| CCOc1c(Nc2cc(C)[nH]n2)nc(Sc2ccc(S(=O)(=O)CC)cc2)nc1N1CCC(CCN(C)C)CC1 | < 1 |
| COc1c(Nc2cc(C)[nH]n2)nc(Sc2ccc(NC(C)=O)cc2)nc1N1CCN(CC(=O)N(C)C)CC1 | < 1 |
| CCOc1c(Nc2cc(C)[nH]n2)nc(Sc2ccc(NC(=O)C3CC3)cc2)nc1N(C)CC [drawing 128] | 0.1 to 1 |
| COc1c(Nc2cc(C)[nH]n2)nc(Sc2ccc(S(=O)(=O)Cc3nccs3)cc2)nc1N1CCN(CCN(C)C)CC1 | < 1 |
| COc1c(Nc2cc(C)[nH]n2)nc(Sc2ccc(NC(C)=O)cc2)nc1N1CCN(CCNC(C)=O)CC1 | < 1 |
| COCCN1CCN(c2nc(Sc3ccc(NC(=O)C4CC4)cc3)nc(Nc3cc(C)[nH]n3)c2C)CC1 | < 1 |
| COCCN(C)c1nc(Sc2ccc(NC(C)=O)cc2)nc(Nc2cc(C)[nH]n2)c1C | < 1 |
| COc1c(Nc2cc(C)[nH]n2)nc(Sc2ccc(S(=O)(=O)Cc3cccc([N+](=O)[O-])c3)cc2)nc1N1C2CCC1COC2 | < 1 |
| COc1c(Nc2cc(C)[nH]n2)nc(Sc2ccc(S(=O)(=O)C(C)(C)c3cccc([N+](=O)[O-])c3F)cc2F)nc1N1CCOC[C@@H]1CO | < 1 |
| CNCC(=O)N1CCN(c2nc(Sc3ccc(NC(C)=O)cc3)nc(Nc3cc(C)[nH]n3)c2OC)CC1 | < 1 |
| CCOc1c(Nc2cc(C)[nH]n2)nc(Sc2ccc(NC(C)=O)cc2)nc1N(CC)CC | 0.1 to 1 |

| Structure (SMILES) | IC50 [µM] |
| --- | --- |
| Cc1cc(Nc2nc(Sc3ccc(NC(=O)C4CC4)cc3)nc(N3CCN(C)C(C)C3)c2C)n[nH]1 (stereo not shown) | < 1 |
| CC(=O)Nc1ccc(Sc2nc(Nc3cc(C)[nH]n3)c(C)c(N3CCN(C4CCN(C)CC4)CC3)n2)cc1 | < 1 |
| Cc1cc(Nc2nc(Sc3ccc([N+](=O)[O-])cc3)nc3c2CCC32CCNCC2)n[nH]1 | < 1 |
| COc1c(Nc2cc(C)[nH]n2)nc(Sc2ccc(S(=O)(=O)Cc3cccc(C(F)(F)F)c3)cc2)nc1N1CCN(CCN(C)C)CC1 | < 1 |
| CC(=O)Nc1ccc(Sc2nc(Nc3cc(C)[nH]n3)c(C)c(N3CCC(CCN(C)C)CC3)n2)cc1 | < 1 |
| Cc1cc(Nc2nc(Sc3ccc(NC(=O)C4CC4)cc3)nc(N3CCN(C)CC3)c2CO)n[nH]1 | 0.1 to 1 |
| CCC(=O)N1CCN(c2nc(Sc3ccc(NC(C)=O)cc3)nc(Nc3cc(C)[nH]n3)c2C)CC1 | < 1 |
| COc1c(Nc2cc(C)[nH]n2)nc(Sc2ccc(C#Cc3cccc([N+](=O)[O-])c3F)cc2F)nc1N1CCOCC1 | < 1 |
| COc1c(Nc2cc(C)[nH]n2)nc(Sc2ccc(S(=O)(=O)Cc3c(F)ccc(F)c3F)cc2F)nc1N1CCN(CCN(C)C)CC1 | < 1 |
| COc1c(Nc2cc(C)[nH]n2)nc(Sc2ccc(S(=O)(=O)C(F)c3cccc([N+](=O)[O-])c3F)cc2F)nc1N1CCC(CCN(C)C)CC1 (stereo not shown) | < 1 |
| COc1c(Nc2cc(C)[nH]n2)nc(Sc2ccc(NC(C)=O)cc2)nc1N1CCC(F)CC1 | < 1 |
| CC(=O)Nc1ccc(Sc2nc(Nc3cc(C)[nH]n3)c(C)c(N3CCC(F)(F)CC3)n2)cc1 | < 1 |
| Cc1cc(Nc2nc(Sc3ccc(N)cc3)nc(N3CCOCC3)c2C)n[nH]1 | < 1 |
| COc1c(Nc2cc(C)[nH]n2)nc(Sc2ccc(S(=O)(=O)C(C)(C)c3cccc([N+](=O)[O-])c3F)cc2F)nc1N1CCCCC1 | < 1 |
| CCS(=O)(=O)c1ccc(Sc2nc(Nc3cc(C)[nH]n3)c(OC)c(N3CCN(CCN(C)C)CC3)n2)cc1 | < 1 |
| CCOc1c(Nc2cc(C)[nH]n2)nc(Sc2ccc(NC(=O)C3CC3)cc2)nc1N1CCN(CCOC)CC1 | 0.1 to 1 |
| CCNc1nc(Sc2ccc(NC(=O)C3CC3)cc2)nc(Nc2cc(C)[nH]n2)c1OC | < 1 |
| CCOc1c(Nc2cc(C)[nH]n2)nc(Sc2ccc(NC(=O)C3CC3)cc2)nc1N(C)CCOC | 0.1 to 1 |
| COc1c(Nc2cc(C)[nH]n2)nc(Sc2ccc(S(=O)(=O)COCc3ccccc3)cc2)nc1N1CCN(CCN(C)C)CC1 | < 1 |

Results, then the compound that gave them:

| IC50 [µM] | Structure (SMILES) |
| --- | --- |
| < 1 | COc1c(Nc2cc(C)[nH]n2)nc(Sc2ccc(NC(C)=O)cc2)nc1N1CCOCC1 |
| < 1 | CC(=O)Nc1ccc(Sc2nc(Nc3cc(C)[nH]n3)c(C)c(N3CCN(C(=O)CN(C)C)CC3)n2)cc1 |
| < 1 | CCN(CC)c1nc(Sc2ccc(NC(C)=O)cc2)nc(Nc2cc(C)[nH]n2)c1OC |
| < 1 | COc1cccc(CS(=O)(=O)c2ccc(Sc3nc(Nc4cc(C)[nH]n4)c(OC)c(N4CCN(CCN(C)Cc5ccccc5)CC4)n3)cc2)c1 |
| < 1 | COc1c(Nc2cc(C)[nH]n2)nc(Sc2ccc(NC(C)=O)cc2)nc1N1CCC(N(C)C)CC1 |
| < 1 | COc1c(Nc2cc(C)[nH]n2)nc(Sc2ccc(NC(C)=O)cc2)nc1N1CCC(CC(N)=O)CC1 |
| < 1 | CCNc1nc(Sc2ccc(NC(=O)C3CC3)cc2)nc(Nc2cc(C)[nH]n2)c1C |
| < 1 | COc1c(Nc2cc(C)[nH]n2)nc(Sc2ccc(S(=O)(=O)C(C)(C)c3cccc([N+](=O)[O-])c3F)cc2F)nc1N1CCN(C(C)=O)CC1 |
| < 1 | COc1c(Nc2cc(C)[nH]n2)nc(Sc2ccc(S(=O)(=O)C(F)c3cccc([N+](=O)[O-])c3F)cc2F)nc1N1CCOC[C@@H]1CO (stereo partly shown) |
| < 1 | CCS(=O)(=O)c1ccc(Sc2nc(Nc3cc(C)[nH]n3)c(OC)c(C3CCN(CCN(C)C)CC3)n2)cc1 |
| < 1 | COc1c(Nc2cc(C)[nH]n2)nc(Sc2ccc(NC(C)=O)cc2)nc1N1CCC(CC(=O)O)CC1 |
| < 1 | COc1c(Nc2cc(C)[nH]n2)nc(Sc2ccc(NC(C)=O)cc2)nc1N1CCN(CCN2CCNCC2)CC1 |
| < 1 | CCOc1c(Nc2cc(C)[nH]n2)nc(Sc2ccc(NC(=O)C3CC3)cc2)nc1N(C)CC [drawing 124] |
| < 1 | CC(=O)Nc1ccc(Sc2nc(Nc3cc(C)[nH]n3)c(C)c(N(C)C(C)C)n2)cc1 |
| < 1 | COC(=O)c1cccc(CS(=O)(=O)c2ccc(Sc3nc(Nc4cc(C)[nH]n4)c(OC)c(N4CCN(CCN(C)C)CC4)n3)cc2)c1 |
| < 1 | COc1c(Nc2cc(C)[nH]n2)nc(Sc2ccc(S(=O)(=O)C(C)(C)c3cccc([N+](=O)[O-])c3F)cc2F)nc1N1CCNCC1 |
| < 1 | Cc1cc(Nc2nc(Sc3ccc(NC(=O)C4CC4)cc3)nc(N3CCN(C)CC3)c2C)n[nH]1 |
| < 1 | COc1c(Nc2cc(C)[nH]n2)nc(Sc2ccc(S(=O)(=O)c3cccc([N+](=O)[O-])c3)cc2F)nc1N1CCOCC1 |
| < 1 | CC(=O)Nc1ccc(Sc2nc(Nc3cc(C)[nH]n3)c(C)c(N3CCN(C(C)=O)CC3)n2)cc1 |

| IC50 [µM] | Structure (SMILES) |
| --- | --- |
| < 1 | COc1c(Nc2cc(C)[nH]n2)nc(Sc2ccc(NC(C)=O)cc2)nc1N1CCN(CC(N)=O)CC1 |
| < 1 | COc1c(Nc2cc(C)[nH]n2)nc(Sc2ccc(S(=O)(=O)Cc3cccc(C#N)c3F)cc2F)nc1N1CCCCC1 |
| < 1 | Cc1cc(Nc2nc(Sc3ccc(NC(=O)C4CCCC4)cc3)nc(N3CCNCC3)c2C)n[nH]1 |
| < 1 | COc1c(Nc2cc(C)[nH]n2)nc(Sc2ccc(NC(C)=O)cc2)nc1N1CCN(CCN2CCCCCCC2)CC1 |
| < 1 | COc1c(Nc2cc(C)[nH]n2)nc(Sc2ccc(S(=O)(=O)Cc3cccc(C#N)c3F)cc2F)nc1N1CCN(CCN(C)C)CC1 |
| < 1 | COc1c(Nc2cc(C)[nH]n2)nc(Sc2ccc(S(=O)(=O)Cc3ccc(F)cc3F)cc2)nc1N1CCN(CCN(C)C)CC1 |
| < 1 | COc1c(Nc2cc(C)[nH]n2)nc(Sc2ccc(NC(C)=O)cc2)nc1N1CCC(C(C)=O)CC1 |
| < 1 | COc1c(Nc2cc(C)[nH]n2)nc(Sc2ccc(S(=O)(=O)Cc3cccc([N+](=O)[O-])c3)cc2)nc1N1CCO[C@@H](C)C1 |
| < 1 | Cc1cc(Nc2nc(Sc3ccc(NC(=O)C4CC4)cc3)nc(N(C)C(C)C)c2C)n[nH]1 |
| < 1 | COc1c(Nc2cc(C)[nH]n2)nc(Sc2ccc(NC(C)=O)cc2)nc1N1CCCC1 |
| < 1 | COc1c(Nc2cc(C)[nH]n2)nc(Sc2ccc(S(=O)(=O)C(F)(F)F)cc2)nc1N1CCN(CCN(C)C)CC1 |
| < 1 | COc1c(Nc2cc(C)[nH]n2)nc(Sc2ccc(S(=O)(=O)Cc3cccc([N+](=O)[O-])c3O)cc2)nc1N1CCN(CCN(C)C)CC1 |
| < 1 | COC(=O)c1cccc(CS(=O)(=O)c2ccc(Sc3nc(Nc4cc(C)[nH]n4)c(OC)c(N4CCOCC4)n3)c(F)c2)c1F |
| < 1 | COc1ccc(CS(=O)(=O)c2ccc(Sc3nc(Nc4cc(C)[nH]n4)c(OC)c(N4CCN(CCN(C)C)CC4)n3)cc2)cc1 |
| < 1 | COc1c(Nc2cc(C)[nH]n2)nc(Sc2ccc(NC(=O)C3CC3)cc2)nc1N1CCC(O)CC1 |
| < 1 | COc1c(Nc2ncc(C)s2)nc(Sc2ccc(S(C)(=O)=O)cc2)nc1N1CCN(CCN(C)C)CC1 |
| < 1 | Cc1cc(Nc2cc(C)[nH]n2)nc(Sc2ccc(NC(=O)C3CC3)cc2)n1 |
| < 1 | COCCN1CCN(c2nc(Sc3ccc(NC(C)=O)cc3)nc(Nc3cc(C)[nH]n3)c2C)CC1 |
| < 1 | COc1c(Nc2cc(C)[nH]n2)nc(Sc2ccc(C(C)=O)cc2)nc1N1CCN(CCN(C)C)CC1 |
